# US5171882A, “Leukotriene antagonists” (Eli Lilly and Company, priority 1990, dated 1992)
# Read-outs that look alike come from different tables or passages of the source.
# Biological target: T1, specific receptor on the membrane of human neutrophils (leukotriene B4) (Homo sapiens, UniProt Q15722)
# T1 construct: Freshly-prepared buffy coat layers from two individuals were obtained from a local blood donor center; endogenous in cells; host or cells: intact human peripheral blood neutrophils from buffy coats of two donors
# Test: Inhibition of Binding of ^3 H-LTB4 to Peripheral Human Neutrophils
# Conditions: for inhibition at 10 µM / inhibition at 1 µM / inhibition at 0.1 µM: read-out: LTB4 Binding Inhibition; for inhibition at 0.1 µM: drug concentration 10^-7 M
# Method: Cells used in the assay were isolated by standard techniques of centrifugation on Ficoll-Hypaque, dextran 70 sedimentation and hypotonic lysis. The following procedure was used. Freshly-prepared buffy coat layers from two individuals were obtained from a local blood donor center. The cells were mixed and diluted to 484 ml with phosphate buffered saline containing heparin (10 units/ml) and heat-inactivated calf serum (5%). This was divided into 20 ml aliquots and the aliquots layered on top of Ficoll-Paque (12 ml). The material was then centrifuged at 500 g for 40 minutes at room temperature. The resulting upper layer of platelets and mononuclear cells was discarded. The lower layer containing erythrocytes and neutrophils was retained. Buffer was added (1 ml per 4 ml of lower layer) and the suspension mixed. For each milliliter of this mixture, 0.33 ml of 6% Macrodex was added. After stirring, the cells were allowed to sediment for 1 hour at 37° C. The resulting erythrocyte pellet was discarded and the neutrophil enriched supernatant fluid centrifuged at 500 g for 10 minutes at 4° C. Erythrocytes still present in this cell pellet were lysed by incubating the cells with 5-8 ml ice-cold distilled water for 30-45 seconds. Subsequently, the volume was made up to 50 ml by addition of ice-cold buffer and the cells resuspended. The suspension was then centrifuged at 300 g for 10 minutes at 4° C. The cells were finally resuspended at a cell density of 2×10^7 cells/ml in the assay buffer This buffer consisted of Hanks' balanced salt solution and 0.1% ovalbumin (pH 7.3).
# The amount of bound ^3 H-LTB4 was then measured and compared with the amount bound in the absence of test compound. The assay was carried out in microcentrifuge tubes by adding first 10 μl test compound dissolved in DMSO, followed by adding 20 μl ^3 H-LTB4 diluted in assay buffer, and finally adding 500 μl of the cell suspension. At the end of the 10 minutes incubation, 300 μl of a mixture of dibutyl and dinonyl phthalate (7:2) were added and the tubes centrifuged for 2 minutes in a microcentrifuge. The radioactivity bound to the cell pellet was measured by scintillation spectroscopy. Appropriate corrections for nonspecific bonding of ^3 H-LTB4 were made.
# [1] = drug concentration 10^-5 M, 0.1-0.2 nM ^3 H-LTB4, 10 minutes at 4° C
# [2] = drug concentration 10^-6 M, 0.1-0.2 nM ^3 H-LTB4, 10 minutes at 4° C
# [3] = 0.1-0.2 nM ^3 H-LTB4, 10 minutes at 4° C
# T1 sequence (Q15722 whole entry): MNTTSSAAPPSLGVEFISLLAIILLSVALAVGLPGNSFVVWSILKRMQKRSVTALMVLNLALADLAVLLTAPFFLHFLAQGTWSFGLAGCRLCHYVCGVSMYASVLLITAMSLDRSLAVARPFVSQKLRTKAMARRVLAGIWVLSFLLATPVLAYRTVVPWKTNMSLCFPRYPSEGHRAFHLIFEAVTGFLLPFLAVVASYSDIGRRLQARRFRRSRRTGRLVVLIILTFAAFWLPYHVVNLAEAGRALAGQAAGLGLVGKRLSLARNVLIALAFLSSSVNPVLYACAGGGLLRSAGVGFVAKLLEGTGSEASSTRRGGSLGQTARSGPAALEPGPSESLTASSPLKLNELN
SMILES,inhibition at 10 µM [1] [%],inhibition at 1 µM [2] [%],inhibition at 0.1 µM [3] [%],other results
"CCCCCCCCCCOc1ccc(C(=O)c2cccc(C(=O)OCC)c2)cc1Cc1nnn[nH]1 [Example 2, 3-[4-(Decyloxy)-3-(1H-tetrazol-5-ylmethyl)-benzoyl]benzoic acid, ethyl ester]",-11,14,,
"CCCCCCCCCCOc1ccc(C(=O)c2cccc(C(=O)OCC)c2)cc1CC(=O)OCC [Example 4, 2-(Decyloxy)-5-[3-(ethoxycarbonyl)benzoyl]benzeneacetic acid, ethyl ester]",-5,-1,,
"CCCCCCCCCCOc1ccc(C(=O)c2cccc(C#N)c2)cc1CC#N [Example 12, 5-(3-Cyanobenzoyl)-2-(decyloxy)benzeneacetonitrile]",3,-1,,
"CCCCCCCCCCOc1ccc(C(=O)c2cccc(-c3nnn[nH]3)c2)cc1CC(=O)OCC [Example 15, 2-(Decyloxy)-5-[3-(1H-tetrazol-5-yl)benzoyl]benzeneacetic acid, ethyl ester]",-13,1,,
"CCCCCCCCCCOc1ccc(C(=O)c2cccc(-c3nnn[nH]3)c2)cc1Cc1nnn[nH]1 [Example 17, [4-(Decyloxy)-3-(1H-tetrazol-5-ylmethyl)phenyl][3-(1H-tetrazol-5-yl)phenyl]methanone]",81,20,,
"CCCCCCCCCCCCCCOc1ccc(C(=O)c2cccc(C(=O)O)c2)cc1CC(=O)O [Example 26, 5-(3-Carboxybenzoyl)-2-(tetradecyloxy)benzeneacetic acid]",63,10,,
"CCCCCCCCCCCCOc1ccc(C(=O)c2cccc(C(=O)O)c2)cc1CC(=O)O [Example 27, 5-(3-Carboxybenzoyl)-2-(dodecyloxy)benzeneacetic acid]",80,18,,
"CCCCCCCCCCOc1ccc(C(=O)c2ccccc2C(=O)O)cc1CC(=O)OCC [Example 32, 5-(2-Carboxybenzoyl)-2-(decyloxy)benzeneacetic acid, ethyl ester]",19,-6,,
"CCCCCCCCCCOc1ccc(C(=O)c2ccccc2C(=O)O)cc1CC(=O)O [Example 35, 5-(2-Carboxybenzoyl)-2-(decyloxy)benzeneacetic acid]",,,,LTB4 Binding Inhibition [1]: 53 percent inhibition; LTB4 Binding Inhibition [2]: 2 percent inhibition
"CCCCCCCCCCOc1ccc(C(O)c2cccc(C(=O)OCC)c2)cc1CC(=O)OCC (stereo not drawn) [Example 40, 2-(Decyloxy)-5-{[3-(ethoxycarbonyl)phenyl]hxdroxymethyl}benzeneacetic acid, ethyl ester]",-14,-10,,
"CCCCCCCCOc1ccc(C(O)c2cccc(C(=O)O)c2)cc1CC(=O)O (stereo not drawn) [Example 44, 5-[(3-Carboxyphenyl)hydroxymethyl]-2-(octyloxy)benzeneacetic acid]",41,11,,
"CCCCCCCCCCOc1ccc(Cc2cccc(C(=O)O)c2)cc1CCC(=O)O [Example 50, 5-[(3-Carboxyphenyl)methyl]-2-(decyloxy)benzenepropanoic acid]",88,41,,
"O=C(O)CCc1cc(C(=O)c2cccc(C(=O)O)c2)ccc1OCCCCC=Cc1ccccc1 [Example 76, 5-(3-Carboxybenzoyl)-2-[6-(phenyl-5-hexenyl)oxy]benzenepropanoic acid]",96,91,36,
"O=C(O)CCc1cc(C(=O)c2cccc(C(=O)O)c2)ccc1OCCCC[S+]([O-])c1ccccc1 (stereo not drawn) [Example 77, 5-(3-Carboxybenzoyl)-2-[4-(phenylsulfinyl)-butoxy]benzenepropanoic acid]",22,8,,
"O=C(O)CCc1cc(C(=O)c2cccc(C(=O)O)c2)ccc1OCCCCS(=O)(=O)c1ccccc1 [Example 78, 5-(3-Carboxybenzoyl)-2-[4-(phenylsulfonyl)-butoxy]benzenepropanoic acid]",18,4,,
"COc1ccc(CCCCCCOc2ccc(C(=O)c3cccc(C(=O)O)c3)cc2CCC(=O)O)cc1 [Example 80, 5-(3-Carboxybenzoyl)-2-{[6-(4-methoxyphenyl)-hexyl]oxy}benzenepropanoicacid]",105,98,68,
"O=C(O)CCc1cc(C(=O)c2cccc(C(=O)O)c2)ccc1OCCCCCCc1ccc(F)cc1 [Example 82, 5-(3-Carboxybenzoyl)-2-{[6-(4-fluorophenyl)hexyl]oxy}benzenepropanoic acid]",104,81,22,
"CSc1ccc(C=CCCCCOc2ccc(C(=O)c3cccc(C(=O)O)c3)cc2CCC(=O)O)cc1 [Example 83, 5-(3-Carboxybenzoyl)-2-{[6-(4-methylmercaptophenyl)-5-hexenyl]oxy}benzenepropanoic acid]",103,79,18,
"COc1cccc(C=CCCCCOc2ccc(C(=O)c3cccc(C(=O)O)c3)cc2CCC(=O)O)c1 [Example 84, 5-(3-Carboxybenzoyl)-2-{[6-(3-methoxyphenyl)-5-hexenyl]oxy}benzenepropanoic acid]",99,91,49,
"COc1ccccc1C=CCCCCOc1ccc(C(=O)c2cccc(C(=O)O)c2)cc1CCC(=O)O [Example 85, 5-(3-Carboxybenzoyl)-2-{[6-(2-methoxyphenyl)-5-hexenyl]oxy}benzenepropanoic acid]",101,,86,inhibition at 1 µM: 97%
"COc1cccc(CCCCCCOc2ccc(C(=O)c3cccc(C(=O)O)c3)cc2CCC(=O)O)c1 [Example 86, 5-(3-Carboxybenzoyl)-2-{[6-(3-methoxyphenyl)hexyl]oxy}benzenepropanoic acid]",95,88,46,
"COc1ccccc1CCCCCCOc1ccc(C(=O)c2cccc(C(=O)O)c2)cc1CCC(=O)O [Example 87, 5-(3-Carboxybenzoyl)-2-{[6-(2-methoxyphenyl)hexyl]oxy}benzenepropanoic acid]",,91,34,inhibition at 10 µM: 100%
"CS(=O)(=O)c1ccc(C=CCCCCOc2ccc(C(=O)c3cccc(C(=O)O)c3)cc2CCC(=O)O)cc1 [Example 91, 5-(3-Carboxybenzoyl)-2-{[6-(4-methylsulfonylphenyl)-5-hexenyl]oxy}benzenepropanoic acid]",98,88,60,
"CC(=O)c1ccc(CCCCCCOc2ccc(C(=O)c3cccc(C(=O)O)c3)cc2CCC(=O)O)cc1 [Example 101, 2-{[6-(4-Acetylphenyl)hexyl]oxy}-5-(3-carboxybenzoyl]benzenepropanoic acid]",,88,46,
O=C(O)CCc1cc(NC(=O)c2cccc(C(=O)O)c2)ccc1OCCCCCCc1ccccc1 [Example 102],98,72,18,
